In US20260183274A1, “PDK1 REGULATORY COMPOUND AND COMPOSITION CONTAINING THE SAME” (PROVIBIO CO., LTD., priority 2024, published 2026) one finds viability data, which are given here for 1 compound.

Each structure is given as a SMILES string.

For this experiment, the system named is Human Gastric cancer cell, SNU-719. Put plainly: Relative cell viability CCK-8, SNU-719. The experiment is classed as cell-based. The settings on record: 48 hours. The method, then:
Human-derived breast cancer cell line MCF-7, human-derived lung cancer cell line A549, human-derived colorectal cancer cell line HCT-116, human pancreatic cancer cell line AsPC-1, glioblastoma cell line A172, and melanoma cell line Malme-3M were obtained from the Korean Cell Bank. gastric cancer cell line SNU-719, and bladder cancer cell line T24 were cultured in RPMI-1640 medium containing 10% FBS.
Following stabilization, the cells were harvested using Trypsin-EDTA treatment, centrifuged at 1,200 rpm for 3 minutes, the supernatant was removed, and the cells were resuspended in the same medium. They were then seeded into a 96-well plate (Costar 96-well cell culture plate, Corning) at 100 μL per well, and the conditions were adjusted as indicated in Table 5.
The cells were cultured in a 5% CO2 incubator at 37° C. for 24 hours, and after stabilization of the cells, each plate was washed with 200 μL of PBS per well and treated with 50 μL of culture medium per well.
After that, 10 μL of CCK-8 was added to each well, and the plate was incubated again at 37° C. in a 5% CO2 incubator for 2 hours.
In other words, when the survival rate of untreated cells (DMSO) is set at 100%, the relative cell survival rate in each group treated with the drug at different concentrations is indicated.

By viability is commonly meant a read-out of living cells in per cent, often relative to untreated cells. Lower therefore signals a greater loss of cells. In the case of `Nc1ncccc1C(=O)NCCCCCCCCCCCCN1CCNCC1` [Compound 14, 2-Amino-N-(12-(piperazin-1-yl)dodecyl)nicotinamide], the viability at 1 µM (1 μM) amounted to 49.9%. Also, for the setting “10 μM”, the viability at 10 µM amounted to 47.8%. The compound also yielded a viability at 30 µM (30 μM) of 44.4%. Besides, for the setting “50 μM”, the viability at 50 µM was 45.5%.
